Measurements published in the supplement of paper PMC13380429.

Experiments:
Details in all cases: 72 h
[1] = system: HepG2; assay: drug sensitivity score (DSS) for viability; higher = more toxic; extreme values may be limits of the assay
[2] = system: Calu-3; assay: as above
[3] = system: Vero E6; assay: as above
[4] = system: U2OS; assay: as above
[5] = system: Caco-2; assay: as above
[6] = system: HepG2; assay: cell viability relative to DMSO; higher = less toxic
[7] = system: Calu-3; assay: as above
[8] = system: Vero E6; assay: as above
[9] = system: U2OS; assay: as above
[10] = system: Caco-2; assay: as above
[11] = system: HepG2; assay: relative viability EC50 (midpoint between 100% and the lowest measured viability); higher = less toxic
[12] = system: Calu-3; assay: as above
[13] = system: Vero E6; assay: as above
[14] = system: U2OS; assay: as above
[15] = system: Caco-2; assay: as above

Structure (SMILES)	drug sensitivity score [1]	drug sensitivity score [2]	drug sensitivity score [3]	drug sensitivity score [4]	drug sensitivity score [5]	cell viability ([6]; 1 nM) [%]	cell viability ([6]; 10 nM) [%]	cell viability ([6]; 100 nM) [%]	cell viability ([6]; 1000 nM) [%]	cell viability ([6]; 10000 nM) [%]	cell viability ([7]; 1 nM) [%]	cell viability ([7]; 10 nM) [%]	cell viability ([7]; 100 nM) [%]	cell viability ([7]; 1000 nM) [%]	cell viability ([7]; 10000 nM) [%]	cell viability ([8]; 1 nM) [%]	cell viability ([8]; 10 nM) [%]	cell viability ([8]; 100 nM) [%]	cell viability ([8]; 1000 nM) [%]	cell viability ([8]; 10000 nM) [%]	cell viability ([9]; 1 nM) [%]	cell viability ([9]; 10 nM) [%]	cell viability ([9]; 100 nM) [%]	cell viability ([9]; 1000 nM) [%]	cell viability ([9]; 10000 nM) [%]	cell viability ([10]; 1 nM) [%]	cell viability ([10]; 10 nM) [%]	cell viability ([10]; 100 nM) [%]	cell viability ([10]; 1000 nM) [%]	cell viability ([10]; 10000 nM) [%]	relative viability EC50 [11] [µM]	relative viability EC50 [12] [µM]	relative viability EC50 [13] [µM]	relative viability EC50 [14] [µM]	relative viability EC50 [15] [µM]
C=CCc1cc(OC)c(O)c(C(=O)NCCO)c1 [alibendol]	0	0	0	0	0	92.4	98.7	101	92.5	102	93.6	99.3	87.2	99.7	101	105	99.2	99.6	105	97.4	102	105	95	104	99.6	90.7	112	90.5	93	99.9	> 10	> 10	> 10	> 10	> 10
CC(C)c1ccc2oc3nc(N)c(C(=O)O)cc3c(=O)c2c1 [amlexanox]	0	0	0	0	0	96.7	101	99.9	109	113	92.3	87.4	104	101	99.5	96.6	99.8	98.4	102	106	97.1	94.3	100	96.4	99.8	94	95.9	99.8	89.8	108	> 10	> 10	> 10	> 10	> 10
Clc1cccc(SC2CCNCC2)n1 [anpirtoline]	0	0	0	0	0	109	102	107	104	97.9	94.9	98.6	93.5	98.3	114	102	104	99.1	98.4	96.5	99.3	96.5	100	96.1	100	93.1	93.5	101	100	96.8	> 10	> 10	> 10	> 10	> 10
